Our source for the IC50 values is US8304447B2, “2-acylaminopropoanol-type glucosylceramide synthase inhibitors” (Genzyme Corporation, priority 2007, dated 2012).

Where two headings read alike, the source gives them in different places.

This experiment concerns GM3. Put plainly: GM3 Elisa assay. The class given is cell-based. The conditions noted are these: B16-FO cells, read-out: IC50_uM_Mean. The procedure, abridged:
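Murine B16-FO melanoma cells attached 6 h on collagen, then exposed to compounds for 2 days at 37 °C. After formaldehyde fixation, cell-surface GM3 (NeuAc) was detected by anti-GM3 IgM and peroxidase anti-mouse IgM with Quantablu fluorescence (Ex 325/Em 420).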

Where [1] appears, read: 48 h, Table 1, 2 days incubation.
Where [2] appears, read: 48 h, Table 2, 2 days incubation.

For the molecule `O=C(Nc1ccc2ccccc2c1)N[C@H](CN1CCCC1)[C@H](O)c1ccc2c(c1)OCCO2` [Compound 69, 1-((1R,2R)-1-(2,3-dihydrobenzo[β][1,4]dioxin-6-yl)-1-hydroxy-3-(pyrrolidin-1-yl)propan-2-yl)-3-(naphthalen-2-yl)urea], the IC50 under setting [1] was in the range of 100 to 1000 nM.
Turning to `COc1ccc(C(=O)CCCCC(=O)N[C@H](CN2CCCC2)[C@H](O)c2ccc(OC[C@H](C)CO)cc2)cc1` [Compound 439], where the note is “Table 3 (IC 50 Values)”, the IC50 was in the range of 100 to 1000 nM.
Same read-out and setting: to `CCCCCCCCCCCCCC(=O)N[C@H](CN(C)C(C)C)[C@H](O)c1ccc2c(c1)OCCO2` [Compound 684] belongs 100 to 1000 nM; to `COc1ccc(C(=O)CCCCCC(=O)N[C@H](CN2CCC(F)CC2)[C@H](O)c2ccc3c(c2)OCCO3)cc1` [Compound 626], 100 to 1000 nM.
The same measure, in the same setting: to `CCCCCCCC(=O)N[C@H](CN1CCC[C@@H]1C)[C@@H](O)c1ccc2c(c1)OCCO2` [Compound 527] belongs 1000 to 3000 nM; to `CCCCCCCC(=O)N[C@H](CN1CCC[C@@H]1C(F)(F)F)[C@H](O)c1ccc2c(c1)OCCO2` [Compound 546], 3000 to 10000 nM; to `COc1ccc(C(=O)CCCCC(=O)N[C@H](CN2CCCC2)[C@H](O)c2ccc(C(F)(F)F)cc2)cc1` [Compound 491], 1000 to 3000 nM.
As for `CCCCCCCC(=O)N[C@H](Cc1ncc[nH]1)[C@H](O)c1ccc2c(c1)OCCO2` [Compound 563], the IC50 (Table 3 (IC 50 Values)) was 3000 to 10000 nM.
On to `CCCCCCCC(=O)N[C@H](CN1CCCC1CN1CCCC1)[C@H](O)c1ccc2c(c1)OCCO2` (some centres unmarked) [Compound 316], for which the IC50 under setting [2] lay in the range of 3000 to 10000 nM.
Regarding `COc1ccc(C(=O)CCCCCC(=O)N[C@H](CN2CCCC2)[C@H](O)c2ccc(Cl)cc2)cc1` [Compound 380], under “Table 3 (IC 50 Values)”, the IC50 was at most 100 nM.
In the case of `O=C(CCCC(=O)c1ccc(F)cc1)N[C@H](CN1CCCC1)[C@H](O)c1ccc2c(c1)OCCO2` [Compound 639], the IC50 (Table 3 (IC 50 Values)) was in the range of 100 to 1000 nM.
Consider `O=C(COc1ccc(Cl)c(Cl)c1)N[C@H](CN1CCCC1)[C@H](O)c1ccc2c(c1)OCCO2` [Compound 87, 2-(3,4-dichlorophenoxy)-N-((1R,2R)-1-(2,3-dihydrobenzo[β][1,4]dioxin-6-yl)-1-hydroxy-3-(pyrrolidin-1-yl)propan-2-yl)acetamide], for which the IC50 under setting [1] was at most 100 nM.
Consider `O=C(CSCc1ccccc1)N[C@H](CN1CCCC1)[C@H](O)c1ccc2c(c1)OCCO2` [Compound 39, 2-(benzylthio)-N-((1R,2R)-1-(2,3-dihydrobenzo[β][1,4]dioxin-6-yl)-1-hydroxy-3-(pyrrolidin-1-yl)propan-2-yl)acetamide], for which the IC50 under setting [1] was at most 100 nM.
For `COc1ccc([C@@H](O)[C@@H](CN2CCCC2)NC(=O)CCCCCC(C)=O)cc1` [Compound 279], the IC50 under setting [2] was in the range of 1000 to 3000 nM.
On to `O=C(CCOc1ccc(F)cc1)N[C@H](CN1C2CCC1CC2)[C@H](O)c1ccc2c(c1)OCCO2` [Compound 473], for which the IC50 (Table 3 (IC 50 Values)) was at most 100 nM.
Take `CCCCCCCC(=O)N[C@H](CN1CCC(C)(C)C1)[C@H](O)c1ccc2c(c1)OCCO2` [Compound 521]: the IC50 (Table 3 (IC 50 Values)) lay within 3000 to 10000 nM.
Same read-out and setting: the same measure for `COc1ccc(C(=O)CCCCCC(=O)N[C@H](CN2CCCC2)[C@H](O)/C=C/c2ccccc2)cc1` [Compound 394]: 1000 to 3000 nM; for `COc1ccc(C(=O)CCCCCC(=O)N[C@H](CN2C3CCC2CC3)[C@H](O)c2ccc3c(c2)OCCO3)cc1` [Compound 522]: at most 100 nM.
Same read-out and setting: the same measure for `COc1ccc(OCCC(=O)N[C@H](CN2CC[C@H](c3ccccc3)C2)[C@H](O)c2ccc3c(c2)OCCO3)cc1` [Compound 505]: 3000 to 10000 nM; for `COc1ccc(C(=O)CCCCCC(=O)N[C@H](CN(CC2CC2)CC2CC2)[C@H](O)c2ccc3c(c2)OCCO3)cc1` [Compound 464]: 3000 to 10000 nM.
The same measure, in the same setting: the same measure for `CCCCCCCC(=O)N[C@H](CN1CCCC1)[C@H](O)c1sccc1C` [Compound 360]: 100 to 1000 nM.
As to `CCc1ccc(OCCC(=O)N[C@H](CN2CCCC2)[C@H](O)c2ccc3c(c2)OCCO3)cc1` [Compound 188, N-((1R,2R)-1-(2,3-dihydrobenzo[b][1,4]dioxin-6-yl)-1-hydroxy-3-(pyrrolidin-1-yl)propan-2-yl)-3-(4-ethylphenoxy)propanamide (2R,3R)-2,3-dihydroxysuccinate], the IC50 under setting [1] is 100 to 1000 nM.
As to `CCCCCCCC(=O)N[C@H](CN1CCCC1)[C@H](O)c1ccc(OC(F)(F)F)cc1` [Compound 667], the IC50 (Table 3 (IC 50 Values)) lay within 100 to 1000 nM.
As to `COc1ccc(C(=O)CCCCCC(=O)N[C@@H](CN(C)C)[C@@H](O)c2ccc3c(c2)OCCO3)cc1` [Compound 469], the IC50 (Table 3 (IC 50 Values)) is 100 to 1000 nM.
On to `COc1ccc(C(=O)CCCCCC(=O)N[C@H](CN2CCCC2)[C@H](O)c2ccc(OC)c(Cl)c2)cc1` [Compound 707], for which the IC50 (Table 3 (IC 50 Values)) was at most 100 nM.
As for `O=C(CCCC#CC1(O)CCCCC1)N[C@H](CN1CCCC1)[C@H](O)c1ccc2c(c1)OCCO2` [Compound 631], where the note is “Table 3 (IC 50 Values)”, the IC50 was in the range of 3000 to 10000 nM.
Turning to `COc1ccc(C(=O)CCCCCC(=O)N[C@H](CN2CCCC2)[C@H](O)c2ccc(OC)cc2)cc1` [Compound 285, 7-(4-Methoxy-phenyl)-7-oxo-heptanoic acid [2-hydroxy-2-(4-methoxy-phenyl)-1-pyrrolidin-1-ylmethyl-ethyl]-amide], under setting [2], the IC50 is at most 100 nM.
In the case of `CCCN(C)C[C@H](NC(=O)CCCCCC(=O)c1ccc(OC)cc1)[C@@H](O)c1ccc2c(c1)OCCO2` [Compound 470], the IC50 (Table 3 (IC 50 Values)) lay within 100 to 1000 nM.
For the molecule `CCCCCCCCCCCCCCCC(=O)N[C@H](CNC(C)C)[C@H](O)c1ccc2c(c1)OCCO2` [Compound 680], the IC50 (Table 3 (IC 50 Values)) was at most 100 nM.
On the same count and under the same terms, to `COCCOc1ccc(C(=O)CCCCC(=O)N[C@H](CN2CC[C@H](O)C2)[C@H](O)c2ccc(OC(C)C)cc2)cc1` [Compound 740] belongs at most 100 nM.
Same read-out and setting: to `Cc1ccc([C@@H](O)[C@@H](CN2CCCC2)NC(=O)Cc2ccc(OC(F)(F)F)cc2)cc1F` [Compound 347] belongs 100 to 1000 nM.
Consider `COc1ccc(OCCC(=O)N[C@H](CN2CCCC2)[C@H](O)c2ccc3c(c2)OCCO3)cc1` [Compound 61, N-((1R,2R)-1-(2,3-dihydrobenzo[β][1,4]dioxin-6-yl)-1-hydroxy-3-(pyrrolidin-1-yl)propan-2-yl)-3-(4-methoxyphenoxy)propanamide], for which the IC50 under setting [1] was at most 100 nM.
Regarding `Cc1ccc(OCCC(=O)N[C@H](CN2CC[C@H](O)C2)[C@H](O)c2ccc(OCCCCF)cc2)cc1` [Compound 496], the IC50 (Table 3 (IC 50 Values)) was at most 100 nM.
Same read-out and setting: to `CCCCCCCC(=O)N[C@H](CN1CCCC(C)C1)[C@H](O)c1ccc2c(c1)OCCO2` (some centres unmarked) [Compound 613] belongs 3000 to 10000 nM.
For `CC(C)(C)c1ccc(C(=O)CCCCCC(=O)N[C@H](CN2CCCC2)[C@@H](O)c2ccc3c(c2)OCCO3)cc1` [Compound 160, 7-(4-tert-butylphenyl)-N-((1R,2R)-1-(2,3-dihydrobenzo[β][1,4]dioxin-6-yl)-1-hydroxy-3-(pyrrolidin-1-yl)propan-2-yl)-7-oxoheptanamide], under setting [1], the IC50 was in the range of 100 to 1000 nM.
On to `COc1ccc(C(=O)CCCCC(=O)N(CC(=O)c2ccc(OC)cc2)[C@H](CN2CCCC2)[C@H](O)c2ccc(O)cc2)cc1` [Compound 424], for which the IC50 (Table 3 (IC 50 Values)) fell in the range of 3000 to 10000 nM.
With `O=C(CCCc1nc(-c2ccc(Cl)cc2)no1)N[C@H](CN1CCCC1)[C@H](OC(=O)CCCc1nc(-c2ccc(Cl)cc2)no1)c1ccc2c(c1)OCCO2` [Compound 253], the IC50 under setting [2] was in the range of 100 to 1000 nM.
`COc1ccc(C(=O)CCCCC(=O)N[C@H](CN2CC[C@H](O)C2)[C@H](O)c2ccc3c(c2)OCCO3)cc1` [Compound 655]: where the note is “Table 3 (IC 50 Values)”, the IC50 fell in the range of 100 to 1000 nM.
